This is an account of results in PubChem BioAssay (NCI).

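Test compounds were applied to cells in 96-well plates for 48 hours at 5 doses. Abbreviation: GI50, concentration required for 50% inhibition of growth. TGI is the concentration that stops growth completely.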

Experiment in all cases: NCI-60 cell line screen, 48 h
Assay [1] relates to HCT-116 colon.
In assay [2] the test system is HOP-62 NSCLC.
Assay [3] concerns LOX IMVI melanoma.
The subject of assay [4] is MALME-3M melanoma.
The test system of assay [5] is NCI-H226 lung.
Assay [6] concerns NCI-H23 lung.
The test system of assay [7] is RXF 393 renal.
The test system of assay [8] is SF-539 CNS.
Assay [9] concerns SW-620 colon.

In the case of `O=C(/C=C/c1cccnc1)/C=C/c1cccnc1`, the GI50 was 0.164 µM in [1]; 6.27 µM in assay [2]; 1.13 µM in assay [3]; 1.97 µM in assay [4]; 5.1 µM in assay [5]; 2.33 µM in assay [6]. The GI50 in assay [7] is 0.608 µM; in assay [8], 1.75 µM; in assay [9] it was 0.724 µM. Besides, the TGI in [1] was determined as 0.321 µM; in assay [2], 16.4 µM; in assay [3], 2.42 µM; in assay [4], 5.31 µM; in assay [5], 15.7 µM; in assay [6], 6.7 µM. Further, the TGI in [7] amounted to 1.53 µM; in assay [8], 3.62 µM; in [9], 2.48 µM.
Take `COc1ccc2c(c1)C(=O)/C(=C/c1ccc(OCC(=O)c3ccc(Cl)cc3)cc1)O2`: the GI50 is 3.07 µM in assay [1]; 43.8 µM in assay [2]; 5.44 µM in assay [3]; 20 µM in [4]; 12.2 µM in assay [5]; 11.6 µM in [6]. Besides, the GI50 was 17.3 µM in [7], 17.9 µM in assay [8] and 3.48 µM in [9]. The TGI was 13 µM in assay [1]; over 100 µM in assay [2]; 19.8 µM in assay [3]; 42.3 µM in [4]; 37.1 µM in [5]; 31.7 µM in assay [6]. In addition, the TGI came out at 42.4 µM in assay [7], 34.8 µM in assay [8] and 10.6 µM in assay [9].
`O=C1/C(=C\c2ccccc2)CN(C(=O)c2ccccc2F)C/C1=C\c1ccccc1`: the GI50 is 0.321 µM in [1]; 2.53 µM in assay [2]; 0.746 µM in [3]; 2.24 µM in [4]; 5.6 µM in [5]; 2.13 µM in assay [6]. In addition, the GI50 in [7] was 1.8 µM; in assay [8], 2 µM; in [9], 1.52 µM. Besides, the TGI in assay [1] was determined as 1.03 µM; in assay [2] it was 6.57 µM; in assay [3], 2.17 µM; in assay [4] it was 4.75 µM; in assay [5], 21.5 µM; in assay [6], 4.84 µM. In addition, the TGI in assay [7] turned out to be 3.41 µM; in assay [8], 4.12 µM; in assay [9], 3.48 µM.
In the case of `C/C(=N\NC(=S)Nc1ccccc1)c1ccccn1`, the GI50 was under 0.01 µM in assay [1]; 0.0708 µM in [2]; 0.0395 µM in [3]; 0.121 µM in assay [4]; 0.217 µM in assay [5]; 0.0191 µM in [6]. The GI50 in [7] is 0.588 µM; in assay [8] it was 0.581 µM; in [9] it was 0.0242 µM. Besides, the TGI in assay [1] was 1.17 µM; in assay [2] it was 3.61 µM; in [3], 2.04 µM; in [4] it was 5.39 µM; in [5], 2.13 µM; in assay [6] it was 5.22 µM. Further, the TGI in assay [7] amounted to 2.64 µM; in assay [8] it was 7.24 µM; in [9] it was 2.94 µM.
Take `CC(=O)NNc1nc(C)c(C(/C=C/c2ccc3c(c2)OCO3)=N/NC(=O)c2ccncc2)s1`: the TGI in assay [1], in [2], in [3], in assay [4], in assay [5] and in [6] was over 100 µM throughout. In addition, the TGI in [7], in assay [8] and in [9] was over 100 µM in each case.
As to `COc1ccc(C(NCCNC(c2ccc(OC)c(OC)c2)c2cc3c(cc2O)OCO3)c2cc3c(cc2O)OCO3)cc1OC` (centres undefined), the TGI amounted to 6.05 µM in assay [1]; 30.6 µM in assay [2]; 3.51 µM in assay [3]; 15.4 µM in assay [4]; 39.1 µM in [5]; 9.3 µM in assay [6]. Further, the results for the TGI in [7], in assay [8] and in assay [9] were 4.85 µM, 6.09 µM and 3.86 µM, respectively.
Consider `COC(=O)CC(CC(=O)C(=O)OC)C(=O)OC` (centres undefined), for which the TGI in assay [1], in assay [2], in assay [3], in assay [4], in assay [5] and in assay [6] was over 100 µM each time. Moreover, the TGI in [7], in assay [8] and in assay [9] was over 100 µM throughout.
Take `C[C@@H](Oc1cc(-n2cnc3ccc(OCC4CCN(C)CC4)cc32)sc1C(N)=O)c1ccccc1C(F)(F)F`: the GI50 was 0.0997 µM in assay [1]; 0.0994 µM in assay [2]; 0.106 µM in assay [3]; 2.79 µM in assay [4]; 1.55 µM in [5]; 0.118 µM in assay [6]. The GI50 is 0.0879 µM in assay [7], 0.144 µM in assay [8] and 0.0648 µM in assay [9]. Besides, the TGI came out at 3.18 µM in assay [1]; 3.11 µM in assay [2]; 3.27 µM in assay [3]; 6.97 µM in assay [4]; 6.16 µM in assay [5]; 3.37 µM in [6]. For the same molecule, the results for the TGI in [7], in assay [8] and in assay [9] were 3.32 µM, 1.08 µM and 3.5 µM, respectively.
`CC(=O)C(CN1CCOCC1)C(c1ccccc1)c1c(O)c2ccccc2oc1=O` (centres undefined): the TGI in assay [1], in assay [2], in [3], in assay [4], in assay [5] and in assay [6] was over 100 µM each time. The TGI in assay [7], in assay [8] and in [9] was over 100 µM in each case.
For the molecule `C#CCSc1nnnn1-c1ccc(Br)c(C)c1`, the GI50 was 29.3 µM in assay [1]; 64.3 µM in assay [2]; 20.9 µM in [3]; 27.2 µM in [4]; 26.4 µM in assay [5]; 21.5 µM in assay [6]. The GI50 in [7] was 27.3 µM; in assay [8], 18.1 µM; in [9], 19.1 µM. Further, the TGI is over 100 µM in assay [1]; over 100 µM in assay [2]; over 100 µM in assay [3]; 71.8 µM in assay [4]; over 100 µM in [5]; 88.6 µM in assay [6]. The TGI in [7] was over 100 µM; in assay [8] it was 36.5 µM; in assay [9], 52.1 µM.
